# Reference: patent publication US6914045B2, “Glycopeptide antibiotics” (Wyeth Holdings Corporation, priority 2001, dated 2005)
# Tests used:
# Enterococcus sp. = assay: in vitro antibacterial evaluation, MIC by broth dilution; assay type: cell-based; conditions: broth dilution, 18 hours at 35° C.
# How it was run: (§1)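 MIC, the lowest antibiotic concentration preventing growth, was read across 64-0.06 μg/mL with 5×10^5 CFU/mL inoculum. Method followed NCCLS M7-A2 broth dilution using Mueller-Hinton II; Gram-positive strains covered recent methicillin-, penicillin- and/or vancomycin-resistant clinical isolates.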
# Streptococcus sp. = assay: as above; assay type: cell-based; conditions: broth dilution, 18 hours at 35° C.
# How it was run: as §1
# Staphylococcus sp. = assay: as above; assay type: cell-based; conditions: broth dilution, 18 hours at 35° C.; for MIC Staphylococcus aureus (ATCC 29213): strain ATCC 29213; for MIC Staphylococcus aureus (GC 1131): strain GC 1131; for MIC Staphylococcus aureus (GC 3051): strain GC 3051; for MIC Staphylococcus aureus (GC 3053): strain GC 3053; for MIC Staphylococcus aureus (GC 4541): strain GC 4541; for MIC Staphylococcus aureus (GC 4542): strain GC 4542; for MIC Staphylococcus aureus-SMITH (GC 4543): strain GC 4543; for MIC Staphylococcus aureus (GC 4544): strain GC 4544; for MIC Staphylococcus aureus (GC 4545): strain GC 4545; for MIC Staphylococcus haemolyticus (GC 4546): strain GC 4546; for MIC Coagulase Negative Staphylococcus (GC 4547): strain GC 4547; for MIC Coagulase Negative Staphylococcus (GC 4548): strain GC 4548; for MIC Coagulase Negative Staphylococcus (GC 4549): strain GC 4549; for MIC Coagulase Negative Staphylococcus (GC 4551): strain GC 4551; for MIC Coagulase Negative Staphylococcus (GC 6257): strain GC 6257
# How it was run: as §1
# Escherichia coli = assay: as above; assay type: cell-based; conditions: 18 hours at 35° C.
# [1] = anatomic pathology (histopathology of heart and kidney) in mice; assay type: in vivo; conditions: CD-1 mice, 20 mg/kg intravenously daily for 9 days, necropsy day 10, microscopic histopathology
# Procedure: Samples of tissues from necropsied mice were formalin-fixed, paraffin-embedded, sectioned, stained with hematoxylin and eosin, and examined microscopically. Histopathologic findings were recorded. These findings were subjectively graded on a scale corresponding to slight, mild, moderate, marked and severe as compared to untreated controls.
# [2] = test system: Staphylococcus aureus-SMITH (GC 4543); assay: acute lethal infection in mice; assay type: in vivo; conditions: acute lethal infection, female CD-1 mice, intraperitoneal challenge, intravenous 30 min. after infection, 7 day survival
# How it was run: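 ED50 from 7 day survival ratios pooled over 3 separate tests. Female CD-1 mice, 20+/−2 gm, ip bacterial challenge (trypticase soy broth or hog gastric mucin) lethal to untreated controls in 24-48 hr; iv dosing 30 min after infection in saline or 5% dextrose, n=5/dose.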
compound,measurement,setting,value
"CC(c1ccccc1)C1NC(=O)CNC(=O)C(CO)NC(=O)C(CC2CNC(=N)N2C2OC(CO)C(O)C(O)C2O)NC(=O)C(CC2CNC(=N)N2)NC(=O)C(Cc2ccc(OC3OC(CO)C(OC4OC5COC6(OC5C(O)C4O)C4CC5CC(C4)CC6C5)C(O)C3O)cc2)NC1=O (stereo not drawn) [Example 219, Cyclo[3-(2-iminoimidazolidin-4-yl)alanyl-3-(3-hexopyranosyl-2-iminoimidazolidin-4-yl)-alanylserylglycyl-β-methylphenylalanyl-O-[4-O-[4,6-O-(2-adamantylidene)hexopyranosyl]-hexopyranosyl]tyrosyl]]",MIC Enterococcus avium (GC 4558),Enterococcus sp.,4 µg/mL
same,MIC Enterococcus faecalis (ATCC 29212),Enterococcus sp.,16 µg/mL
same,MIC Enterococcus faecalis (GC 2242),Enterococcus sp.,8 µg/mL
same,MIC Enterococcus faecalis (GC 2691),Enterococcus sp.,8 µg/mL
same,MIC Enterococcus faecalis (GC 3059),Enterococcus sp.,16 µg/mL
same,MIC Enterococcus faecalis (GC 4552),Enterococcus sp.,8 µg/mL
same,MIC Enterococcus faecalis (GC 4553),Enterococcus sp.,8 µg/mL
same,MIC Enterococcus faecalis (GC 4554),Enterococcus sp.,8 µg/mL
same,MIC Enterococcus faecalis (GC 6189),Enterococcus sp.,8 µg/mL
same,MIC Enterococcus faecium (GC 2243),Enterococcus sp.,8 µg/mL
same,MIC Enterococcus faecium (GC 4556),Enterococcus sp.,8 µg/mL
same,MIC Enterococcus faecium (GC 4557),Enterococcus sp.,4 µg/mL
same,MIC Enterococcus faecalis (ATCC 29212),"Enterococcus sp.; inoculum 5×10^5 CFU/mL, strain ATCC 29212",16 µg/mL
same,MIC Enterococcus faecalis (GC 2242),"Enterococcus sp.; inoculum 5×10^5 CFU/mL, strain GC 2242",8 µg/mL
same,MIC Enterococcus faecium (GC 2243),"Enterococcus sp.; inoculum 5×10^5 CFU/mL, strain GC 2243",8 µg/mL
same,MIC Enterococcus faecalis (GC 2691),"Enterococcus sp.; inoculum 5×10^5 CFU/mL, strain GC 2691",8 µg/mL
same,MIC Enterococcus faecalis (GC 3059),"Enterococcus sp.; inoculum 5×10^5 CFU/mL, strain GC 3059",16 µg/mL
same,MIC Enterococcus faecalis (GC 4552),"Enterococcus sp.; inoculum 5×10^5 CFU/mL, strain GC 4552",8 µg/mL
same,MIC Enterococcus faecalis (GC 4553),"Enterococcus sp.; inoculum 5×10^5 CFU/mL, strain GC 4553",8 µg/mL
same,MIC Enterococcus faecalis (GC 4554),"Enterococcus sp.; inoculum 5×10^5 CFU/mL, strain GC 4554",8 µg/mL
same,MIC Enterococcus faecium (GC 4556),"Enterococcus sp.; inoculum 5×10^5 CFU/mL, strain GC 4556",8 µg/mL
same,MIC Enterococcus faecium (GC 4557),"Enterococcus sp.; inoculum 5×10^5 CFU/mL, strain GC 4557",4 µg/mL
same,MIC Enterococcus avium (GC 4558),"Enterococcus sp.; inoculum 5×10^5 CFU/mL, strain GC 4558",4 µg/mL
same,MIC Enterococcus faecalis (GC 6189),"Enterococcus sp.; inoculum 5×10^5 CFU/mL, strain GC 6189",8 µg/mL
same,MIC Streptococcus agalactiae (GC 4564),Streptococcus sp.,2 µg/mL
same,MIC Streptococcus pneumoniae (ATCC 6301),Streptococcus sp.,0.5 µg/mL
same,MIC Streptococcus pneumoniae (GC 1894),Streptococcus sp.,1 µg/mL
same,MIC Streptococcus pneumoniae (GC 4565),Streptococcus sp.,2 µg/mL
same,MIC Streptococcus pyogenes (GC 4563),Streptococcus sp.,2 µg/mL
same,MIC Streptococcus pneumoniae (ATCC 6301),"Streptococcus sp.; inoculum 5×10^5 CFU/mL, strain ATCC 6301",0.5 µg/mL
same,MIC Streptococcus pneumoniae (GC 1894),"Streptococcus sp.; inoculum 5×10^5 CFU/mL, strain GC 1894",1 µg/mL
same,MIC Streptococcus pyogenes (GC 4563),"Streptococcus sp.; inoculum 5×10^5 CFU/mL, strain GC 4563",2 µg/mL
same,MIC Streptococcus agalactiae (GC 4564),"Streptococcus sp.; inoculum 5×10^5 CFU/mL, strain GC 4564",2 µg/mL
same,MIC Streptococcus pneumoniae (GC 4565),"Streptococcus sp.; inoculum 5×10^5 CFU/mL, strain GC 4565",2 µg/mL
same,MIC Staphylococcus aureus (ATCC 29213),Staphylococcus sp.,4 µg/mL
same,MIC Staphylococcus aureus (GC 1131),Staphylococcus sp.,4 µg/mL
same,MIC Staphylococcus aureus (GC 3051),Staphylococcus sp.,2 µg/mL
same,MIC Staphylococcus aureus (GC 3053),Staphylococcus sp.,2 µg/mL
same,MIC Staphylococcus aureus (GC 4541),Staphylococcus sp.,2 µg/mL
same,MIC Staphylococcus aureus (GC 4542),Staphylococcus sp.,2 µg/mL
same,MIC Staphylococcus aureus-SMITH (GC 4543),Staphylococcus sp.,2 µg/mL
same,MIC Staphylococcus aureus (GC 4544),Staphylococcus sp.,8 µg/mL
same,MIC Staphylococcus aureus (GC 4545),Staphylococcus sp.,2 µg/mL
same,MIC Staphylococcus haemolyticus (GC 4546),Staphylococcus sp.,2 µg/mL
same,MIC Coagulase Negative Staphylococcus (GC 4547),Staphylococcus sp.,2 µg/mL
same,MIC Coagulase Negative Staphylococcus (GC 4548),Staphylococcus sp.,2 µg/mL
same,MIC Coagulase Negative Staphylococcus (GC 4549),Staphylococcus sp.,2 µg/mL
same,MIC Coagulase Negative Staphylococcus (GC 4551),Staphylococcus sp.,4 µg/mL
same,MIC Coagulase Negative Staphylococcus (GC 6257),Staphylococcus sp.,1 µg/mL
same,MIC Escherichia coli (ATCC 25922),Escherichia coli,64 µg/mL
same,MIC Escherichia coli (GC 4559),Escherichia coli,64 µg/mL
same,MIC Escherichia coli (GC 4560),Escherichia coli,4 µg/mL
same,"Anatomical Pathology (Day 10), Heart",[1],0
same,"Anatomical Pathology (Day 10), Kidney",[1],+++
same,"median effective dose (ED50), Staphylococcus aureus-SMITH (GC 4543)",[2],0.5 mg/kg
"Cc1ccc(Oc2cccc(-c3nc4cc(CC5NC(=O)C(C(C)c6ccccc6)NC(=O)CNC(=O)C(CO)NC(=O)C(C(O)C6CNC(=N)N6C6OC(CO)C(O)C(O)C6O)NC(=O)C(C(O)C6CNC(=N)N6)NC5=O)ccc4o3)c2)cc1 (stereo not drawn) [Example 28, Cyclo[3-[2-[3-(4-methylphenoxy)phenyl]-1,3-benzoxazol-5-yl]alanyl-3-(2-iminoimidazolidin-4-yl)seryl-3-(3-hexopyranosyl-2-iminoimidazolidin-4-yl)serylserylglycyl-β-methylphenyl-alanyl]]",MIC Enterococcus faecalis (ATCC 29212),Enterococcus sp.; strain ATCC 29212,8 µg/mL
same,MIC Enterococcus faecalis (GC 2242),Enterococcus sp.; strain GC 2242,4 µg/mL
same,MIC Enterococcus faecium (GC 2243),Enterococcus sp.; strain GC 2243,8 µg/mL
same,MIC Enterococcus faecalis (GC 2691),Enterococcus sp.; strain GC 2691,8 µg/mL
same,MIC Enterococcus faecalis (GC 3059),Enterococcus sp.; strain GC 3059,8 µg/mL
same,MIC Enterococcus faecalis (GC 4552),Enterococcus sp.; strain GC 4552,8 µg/mL
same,MIC Enterococcus faecalis (GC 4553),Enterococcus sp.; strain GC 4553,4 µg/mL
same,MIC Enterococcus faecalis (GC 4554),Enterococcus sp.; strain GC 4554,8 µg/mL
same,MIC Enterococcus faecium (GC 4556),Enterococcus sp.; strain GC 4556,8 µg/mL
same,MIC Enterococcus faecium (GC 4557),Enterococcus sp.; strain GC 4557,4 µg/mL
same,MIC Enterococcus avium (GC 4558),Enterococcus sp.; strain GC 4558,4 µg/mL
same,MIC Enterococcus faecalis (GC 6189),Enterococcus sp.; strain GC 6189,8 µg/mL
same,MIC Streptococcus pneumoniae (ATCC 6301),Streptococcus sp.; strain ATCC 6301,4 µg/mL
same,MIC Streptococcus pneumoniae (GC 1894),Streptococcus sp.; strain GC 1894,4 µg/mL
same,MIC Streptococcus pyogenes (GC 4563),Streptococcus sp.; strain GC 4563,1 µg/mL
same,MIC Streptococcus agalactiae (GC 4564),Streptococcus sp.; strain GC 4564,4 µg/mL
same,MIC Streptococcus pneumoniae (GC 4565),Streptococcus sp.; strain GC 4565,4 µg/mL
same,MIC Staphylococcus aureus (ATCC 29213),Staphylococcus sp.,8 µg/mL
same,MIC Staphylococcus aureus (GC 1131),Staphylococcus sp.,8 µg/mL
same,MIC Staphylococcus aureus (GC 3051),Staphylococcus sp.,4 µg/mL
same,MIC Staphylococcus aureus (GC 3053),Staphylococcus sp.,4 µg/mL
same,MIC Staphylococcus aureus (GC 4541),Staphylococcus sp.,8 µg/mL
same,MIC Staphylococcus aureus (GC 4542),Staphylococcus sp.,8 µg/mL
same,MIC Staphylococcus aureus-SMITH (GC 4543),Staphylococcus sp.,4 µg/mL
same,MIC Staphylococcus aureus (GC 4544),Staphylococcus sp.,8 µg/mL
same,MIC Staphylococcus aureus (GC 4545),Staphylococcus sp.,4 µg/mL
same,MIC Staphylococcus haemolyticus (GC 4546),Staphylococcus sp.,4 µg/mL
same,MIC Coagulase Negative Staphylococcus (GC 4547),Staphylococcus sp.,8 µg/mL
same,MIC Coagulase Negative Staphylococcus (GC 4548),Staphylococcus sp.,4 µg/mL
same,MIC Coagulase Negative Staphylococcus (GC 4549),Staphylococcus sp.,4 µg/mL
same,MIC Coagulase Negative Staphylococcus (GC 4551),Staphylococcus sp.,4 µg/mL
same,MIC Coagulase Negative Staphylococcus (GC 6257),Staphylococcus sp.,2 µg/mL
same,MIC Escherichia coli (ATCC 25922),"Escherichia coli; strain ATCC 25922, broth dilution",64 µg/mL
same,MIC Escherichia coli (GC 4559),"Escherichia coli; strain GC 4559, broth dilution",64 µg/mL
same,MIC Escherichia coli (GC 4560),"Escherichia coli; strain GC 4560, broth dilution",8 µg/mL
same,"Anatomical Pathology (Day 10), Heart",[1],0
same,"Anatomical Pathology (Day 10), Kidney",[1],0
same,"median effective dose (ED50), Staphylococcus aureus-SMITH (GC 4543)",[2],8 mg/kg
